Experimental data: patent publication US6693217B2, “Antimalarial N,N′-substituted biguanides derived from hydroxylamines” (Jacobus Pharmaceutical Co., Inc., priority 2001, dated 2004)
Values joined by “and” are separate entries in the source; they are usually repeats but may differ in a detail not shown here. Identical values can stand only once. Counter-ions that a name gives are not always drawn. Marks after values point to notes of the source that are not given here.

Legend:
[1] = Toxicity: testis weight/body weight after 106 days of drug treated feed; conditions: for Decrease in testis weight/body weight: after 106 days of drug treated feed; for Mean values for testes: Left, % body wt / Mean values for testes: Right, % body wt.: male CD-1 mice, 8-mice groups, drug treated feed 106 days (300 ppm first 79 days, 600 ppm days 80-106); for Mean values for testes: Left, % body wt: control 0.30; for Mean values for testes: Right, % body wt.: control 0.31; for Testis damage / observable pathology: organs examined for pathology after 106 days of drug treated feed
Description: Male CD-1 mice were fed drug treated feed for 106 days. For the first 79 days the drug level was 300 ppm and then 600 ppm for days 80-106. The animals were then sacrificed and the organs were both weighed and examined for pathology.

[2] = tested on: Plasmodium berghei (KBG-173 strain); test: In vivo antimalarial activity, modified Thompson Test (Table II); parameters: species or system Charles River CD-1 mice; conditions: bid on days 3, 4, 5; for Average days Survival: 31 day experiment; for 6 day Parasetemia: % of red blood cells infected
Experimental: In vivo^1 antimalarial activity was tested in male or female Charles River CD-1 mice that were 4-5 weeks old and weighed 20-25 g. They were housed in groups of 3 or 4 in standard plastic cages with wire tops, bed-o-cob® bedding, 12 hr/day of light, and maintained at 75° F. They were fed a standard Ralston Purina mouse chow and the cages and water bottles were changed twice a week. Test compounds were ground in a mortar and pestle and diluted with enough vehicle to give a volume of 10 mL/kg of mouse weight. The oral doses were prepared in 0.5% hydroxyethylcellulose-0.1% Tween-80. The amount of drug was calculated on the free base weight. The mice were infected intraperitoneally on day 0 with 5×10^4 erythrocytes parasitized with Plasmodium berghei (KBG-173 strain) from a donor mouse having a parasitemia between 5-10%. On days 3, 4, 5 the test compounds were administered bid, spaced 6 h apart, to mice. Smears were made from tail blood on day +6 and twice a week thereafter. The smears were stained with Geimsa and examined microscopically. Parasitemias are reported as the % of the red blood cells that are infected. On day 6 the (suppression of) parasitemias of treated animals may be compared to the parasitemias of infected non-treated controls, but these infected non-treated controls die on days 7-12. Activity was also measured by survival. Full activity is defined as all animals living at day 31. Partial activity is defined as days of increased survival versus the infected non-treated controls.
^1This in vivo model is a modification of the Thompson Test. For further description see Ager, A. L., Jr. Rodent Malaria Models. In Handbook of Experimental Pharmacology: Antimalarial Drugs. I. 68/1; Peters, W., Richards, W. H. G., Eds.: Springer-Verlag: Berlin, 1984, pp. 231-33.

Plasmodium berghei = test: Comparison of antimalarial activity of analogs of PS-15 in infected mice (Table III); format: in vivo; conditions: orally bid on days 3, 4, 5 in HEC Tween, infection control 08.0
Description: Mice were infected with Plasmodium berghei on day 0 and the drugs were mixed in HEC Tween and given orally bid on days 3, 4, and 5 post infection. Blood films were taken on day 6 and twice weekly thereafter until day 30.

[3] = in vivo
[4] = tested on: drug-resistant clones of P. falciparum; conditions: cited from earlier work; for In vitro activity relative to comparator: drug-resistant clones of P. falciparum
[5] = tested on: multidrug-resistant P. falciparum; conditions: administered orally to Aotus monkeys; cited from earlier work
P. berghei = conditions: administered orally to mice infected with P. berghei; cited from earlier work
[6] = cited from earlier work

Row | SMILES | Decrease in testis weight/body weight [1] | Mean values for testes: Left, % body wt [1] | Mean values for testes: Right, % body wt. [1] | Testis damage / observable pathology [1] | Average days Survival ([2]; 16 mg/kg oral) | 6 day Parasetemia ([2]; 16 mg/kg oral) | Average days Survival ([2]; 32 mg/kg oral) | 6 day Parasetemia ([2]; 32 mg/kg oral) | Average days Survival ([2]; 64 mg/kg oral) | 6 day Parasetemia ([2]; 64 mg/kg oral) | AVG. DAY OF DEATH (Plasmodium berghei; 16 MK/KG/DAY) | AVG. DAY OF DEATH (Plasmodium berghei; 32 MK/KG/DAY) | AVG. DAY OF DEATH (Plasmodium berghei; 64 MK/KG/DAY) | In vitro activity relative to comparator [4] | other results
1 | CC(C)NC(=N)NC(=N)NOCCCOc1ccc(Cl)c(Cl)c1 [PS-26, 1-[3-(3,4-dichlorophenoxy)propyloxy]-5-isopropylbiguanide(hemisuccinate)] | no decrease in testis weight/body weight | 0.29 % body wt | 0.32 % body wt. | minimal to no observable pathology | 15.7 days and 16.6 days and 16.0 days | 0% and 0.006% | >29.3 days and >31 days | 0% | >31* days | 0% | 16.6 days | 15.5 days | – | – | –
2 | CC(C)NC(=N)NC(=N)NOCCCOc1cc(Cl)c(Cl)cc1Cl [PS-15, N-[3-(2,4,5-trichlorophenoxy)propyloxy]-N′-(1-methylethyl)imidodicarbonimidediamide hydrochloride, reference compound] | – | 0.21 % body wt | 0.22 % body wt. | Testis damage was found | – | – | – | – | – | 0% | 15.1 days | 15.7 days | 17.0 days | more active than proguanil | Average days Survival ([2]; 16 mg/kg oral, hydrochloride): 14.1 days and 15.1 days and 14.6 days and 13.6 days; 6 day Parasetemia ([2]; 16 mg/kg oral, hydrochloride): 1.8% and 2.7% and 1.94% and 1.1%; Average days Survival ([2]; 32 mg/kg oral, hydrochloride): 15.9 days and 17.8 days and 12.8 days and 21.8 days; 6 day Parasetemia ([2]; 32 mg/kg oral, hydrochloride): 0% and 0.006% and 0.01%; Average days Survival ([2]; 64 mg/kg oral, hydrochloride): >24.7 days and >31* days; Testicular toxicity [3]: caused testicular toxicity; Activity against drug-resistant Plasmodium falciparum ([4]; as described by Canfield et al. 1993): significant activity; Cross-resistance with other inhibitors of DHFR ([4]; versus pyrimethamine and cycloguanil): not cross-resistant; Activity relative to proguanil or WR99210 [5]: more active than either proquanil or WR99210; Activity relative to proguanil (P. berghei): more active; Toxicity relative to proguanil (P. berghei): less toxic than proguanil; Metabolism in vivo [6]: metabolized in vivo to WR99210
3 | CC1(C)N=C(N)N=C(N)N1OCCCOc1cc(Cl)c(Cl)cc1Cl [WR99210] | – | – | – | – | – | – | – | – | – | – | – | – | – | ten thousand times more active than the proquanil metabolite cycloguanil | –
4 | CC(C)NC(=N)NC(=N)NOCCCOc1ccc(Cl)cc1Cl [2,4-Dichloro] | – | 0.19 % body wt | 0.20 % body wt. | – | – | – | – | – | – | – | – | – | – | – | –
5 | CC(C)NC(=N)NC(=N)NOCCCOc1ccc(F)c(F)c1 [3,4-Difluoro] | – | 0.21 % body wt | 0.23 % body wt. | – | – | – | – | – | – | – | – | – | – | – | –
6 | CC(C)NC(=N)NC(=N)NOCCCOc1ccc(Cl)cc1 [PS-33, 1-[3-(4-chlorophenoxy)propyloxy]-5-isopropylbiguanide(hemisuccinate)] | no decrease in testis weight/body weight | 0.27 % body wt | 0.36 % body wt. | minimal to no observable pathology | 14.1 days and 15.1 days and 14.6 days and 13.6 days | 1.8% and 2.7% and 1.94% and 1.1% | 21.8 days and 15.9 days and 17.8 days and 12.8 days | 0.01% and 0% and 0.006% | >31* days and >24.7 days | 0% | 16.0 days | 19.5 days | 29.0 days | – | –
